Legend:
[1] = tested on: MCF7 (Breast); assay: In vitro tumor cell growth inhibition, MTS dye conversion assay, MCF7; format: cell-based; details: Homo sapiens, 4-6 days, read-out: IC50 (concentration associated with 50% inhibition of cell growth)
Experimental: (§1) The ability of the compounds of formula I to inhibit tumor cell growth was determined using the assay described in Cory A. H et al., Cancer Commun. 3(7):207-12, 1991.
(§2) Briefly, the assay is a […] method for determining the number of viable cells in proliferation or chemosensitivity assays.
(§3) Human tumor cell lines were propagated under sterile conditions in RPMI 1640 (CellGro) with […] fetal bovine serum (Gibco BRL), 2 mM L-glutamine, and sodium bicarbonate (complete medium). The cells were then incubated at 37° C. in HEPA-filtered Sterilcult CO2 tissue culture incubators (Forma) with 5% CO2 and 95% hymidity. Each cell line was subcultured weekly or biweekly. […]
(§4) The test compounds (100 μL), dissolved in DMSO (Sigma, cell culture grade) and diluted with complete medium, were added to 96-well plates containing attached cellular monolayers (5000 cells/well in 100 μL). […] Antiproliferative effects were assessed with the 3-(4,5-dimethylthiazol-2-yl)-5-(3-carboxymethoxyphenyl)-2-(4-sulfophenyl)-2H-tetrazolium, inner salt (MTS dye) conversion assay. […] The absorbance of formazan in each monolayer was measured at 490 nm on a Coulter microplate reader at 2 and 4 hours after the addition of the MTS solution.
(§5) Growth inhibition data are expressed as a percentage of absorbance detected in control wells and is proportional to the number of viable cells in the culture. […]

[2] = tested on: C6 (Central Nervous System); assay: In vitro tumor cell growth inhibition, MTS dye conversion assay, C6; format: cell-based, Human; details: Rattus norvegicus, 4-6 days, read-out: IC50 (concentration associated with 50% inhibition of cell growth)
Experimental: as §1, §2, §3, §4, §5

[3] = tested on: SW-620 colon cancer cell line; assay: In vitro tumor cell growth inhibition, MTS dye conversion assay, SW-620; format: cell-based, Human; details: 4-6 days
Experimental: as §1, §2, §3, §4, §5

[4] = tested on: CCRF-CEM (Leukemia); assay: In vitro tumor cell growth inhibition, MTS dye conversion assay, CCRF-CEM; format: cell-based; details: Homo sapiens, 4-6 days, read-out: IC50 (concentration associated with 50% inhibition of cell growth)
Experimental: as §1, §2, §3, §4, §5

[5] = tested on: EKVX (Lung); assay: In vitro tumor cell growth inhibition, MTS dye conversion assay, EKVX; format: cell-based; details: Homo sapiens, 4-6 days, read-out: IC50 (concentration associated with 50% inhibition of cell growth)
Experimental: as §1, §2, §3, §4, §5

[6] = tested on: OVCAR-5 ovarian cancer cell line; assay: In vitro tumor cell growth inhibition, MTS dye conversion assay, OVCAR-5; format: cell-based, Human; details: Ovary, 4-6 days
Experimental: as §1, §2, §3, §4, §5

[7] = Homo sapiens, read-out: IC50 (concentration associated with 50% inhibition of cell growth)

IC50 [1] [µM]	IC50 [2] [µM]	IC50 [3, 7] [µM]	IC50 [4] [µM]	IC50 [5] [µM]	IC50 [6, 7] [µM]	IC50 (concentration associated with 50% inhibition of cell growth) [3]	IC50 (concentration associated with 50% inhibition of cell growth) [6]	SMILES
13	12	6	28	14	13			Cc1cc(NC(=O)C(C#N)C(=O)C2CC2)ccc1C(F)(F)F (centres unmarked) [laflunimus, N-(3-Methyl-4trifluoromethylphenyl) 2-Cyano-2-(cyclopropylcarbonyl)acetamide]
						did not achieve IC50 effects	did not achieve IC50 effects	Cc1oncc1C(=O)Nc1ccc(C(F)(F)F)cc1 [lefunomide, 5-methylisoxazole-4-carboxylic acid-(4-trifluromethyl)-anilide, reference compound]

— US6566395B1, “Methods of treating proliferative disorders” (BioMedicines, Inc., priority 1999, dated 2003)
